Data reported in patent US20130225575A1, “METHODS FOR TREATING NEUROLOGICAL CONDITIONS” (AFRAXIS, INC., priority 2010, published 2013).

Tests used:
Assay type in all cases: biochemical
PAK2 = PAK2 (Homo sapiens, UniProt Q13177); experiment: Z'Lyte fluorescence-based (FRET) kinase assay, PAK2; conditions: ATP at Km apparent; 1 hr room temperature
Procedure: (§1) A fluorescence-based assay format is used to determine […] values of test compounds in vitro. Purified PAK kinase is incubated with ATP, and a test compound at various concentrations and a substrate peptide containing two fluorophores. In a second step, the reaction mix is incubated with a site-specific protease that cleaves non-phosphorylated but not phosphorylated substrate peptide, disrupting the FRET signal generated by the two fluorophores in the cleaved peptide (Z'Lyte™ Kinase assay platform; Life Technologies).
(§2) Reagents: 50 mM HEPES, pH 7.5; 0.01% BRIJ-35; 10 mM MgCl2; 1 mM EGTA, 2 uM substrate peptide Ser/Thr20 (proprietary Life Technologies Sequence), PAK enzyme [2.42-30.8 ng for PAK1, 0.29-6 ng for PAK2, 1.5-20 ng for PAK3 and 0.1-0.86 ng for PAK4; actual enzyme amounts depend on lot activity of the enzyme preparation]
(§3) Test compounds are dissolved in DMSO at various concentrations; the final DMSO concentration in the assay reaction is 1%.
(§4) ATP concentration at Km apparent is used in the assay [50 ? M ATP for PAK1 assay, 75 ? M ATP for PAK2 assay, 100 μM ATP for PAK3 assay, 5 μM ATP for PAK4 assay] in a total assay volume of 10 μl. […]
(§5) Plates are analyzed in a standard fluorescence plate reader (Tecan or equivalent) using an excitation wavelength of 400 nm and emission wavelengths of 445 nm and 520 nm. Inhibition of kinase reaction is determined by […]

PAK1 = target: T1, PAK1 (Homo sapiens, UniProt Q13153); experiment: Z'Lyte fluorescence-based (FRET) kinase assay, PAK1; conditions: ATP at Km apparent; 1 hr room temperature
T1 construct: Purified PAK kinase is incubated with ATP
Procedure: as §1, §2, §3, §4, §5

PAK3 = PAK3 (Homo sapiens, UniProt O75914); experiment: Z'Lyte fluorescence-based (FRET) kinase assay, PAK3; conditions: ATP at Km apparent (100 μM ATP); 1 hr room temperature
Procedure: as §1, §2, §3, §4, §5

PAK4 = target: T2, PAK4 (Homo sapiens, UniProt O96013); experiment: Z'Lyte fluorescence-based (FRET) kinase assay, PAK4; conditions: ATP at Km apparent (5 μM ATP); 1 hr room temperature
T2 construct: Purified PAK kinase is incubated with ATP
Procedure: as §1, §2, §3, §4, §5

Measured: IC50

T2 sequence (O96013 whole entry): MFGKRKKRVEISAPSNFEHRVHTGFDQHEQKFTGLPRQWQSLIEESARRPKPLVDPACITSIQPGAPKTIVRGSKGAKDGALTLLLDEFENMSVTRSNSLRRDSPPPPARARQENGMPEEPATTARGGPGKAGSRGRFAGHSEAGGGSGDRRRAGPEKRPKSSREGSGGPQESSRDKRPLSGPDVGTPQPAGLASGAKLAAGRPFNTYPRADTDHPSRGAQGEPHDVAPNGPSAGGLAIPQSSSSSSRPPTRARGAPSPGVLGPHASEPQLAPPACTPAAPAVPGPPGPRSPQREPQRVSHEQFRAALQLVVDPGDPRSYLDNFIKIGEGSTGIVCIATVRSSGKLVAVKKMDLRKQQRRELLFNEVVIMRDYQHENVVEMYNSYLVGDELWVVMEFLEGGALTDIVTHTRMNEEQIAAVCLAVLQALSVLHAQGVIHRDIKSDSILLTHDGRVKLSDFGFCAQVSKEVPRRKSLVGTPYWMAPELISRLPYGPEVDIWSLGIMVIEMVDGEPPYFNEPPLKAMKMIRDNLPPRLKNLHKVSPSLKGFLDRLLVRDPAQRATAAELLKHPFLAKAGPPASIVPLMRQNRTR
Chain of PAK3 (O75914 whole entry): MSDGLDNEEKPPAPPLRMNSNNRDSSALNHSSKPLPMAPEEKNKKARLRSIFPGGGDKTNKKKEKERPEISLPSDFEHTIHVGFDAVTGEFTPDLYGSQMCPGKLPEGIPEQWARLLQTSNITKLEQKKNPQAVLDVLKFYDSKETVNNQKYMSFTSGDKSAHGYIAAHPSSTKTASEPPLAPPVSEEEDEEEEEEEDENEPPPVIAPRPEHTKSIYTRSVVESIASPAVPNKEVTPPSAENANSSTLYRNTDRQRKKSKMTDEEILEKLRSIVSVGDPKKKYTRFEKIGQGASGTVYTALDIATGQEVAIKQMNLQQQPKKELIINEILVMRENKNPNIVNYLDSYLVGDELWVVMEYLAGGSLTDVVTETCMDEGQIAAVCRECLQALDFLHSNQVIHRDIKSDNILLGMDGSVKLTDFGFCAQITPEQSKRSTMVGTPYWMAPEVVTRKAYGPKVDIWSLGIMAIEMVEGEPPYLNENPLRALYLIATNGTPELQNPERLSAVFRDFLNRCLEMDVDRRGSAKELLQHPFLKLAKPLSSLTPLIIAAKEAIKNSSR
T1 sequence (Q13153 whole entry): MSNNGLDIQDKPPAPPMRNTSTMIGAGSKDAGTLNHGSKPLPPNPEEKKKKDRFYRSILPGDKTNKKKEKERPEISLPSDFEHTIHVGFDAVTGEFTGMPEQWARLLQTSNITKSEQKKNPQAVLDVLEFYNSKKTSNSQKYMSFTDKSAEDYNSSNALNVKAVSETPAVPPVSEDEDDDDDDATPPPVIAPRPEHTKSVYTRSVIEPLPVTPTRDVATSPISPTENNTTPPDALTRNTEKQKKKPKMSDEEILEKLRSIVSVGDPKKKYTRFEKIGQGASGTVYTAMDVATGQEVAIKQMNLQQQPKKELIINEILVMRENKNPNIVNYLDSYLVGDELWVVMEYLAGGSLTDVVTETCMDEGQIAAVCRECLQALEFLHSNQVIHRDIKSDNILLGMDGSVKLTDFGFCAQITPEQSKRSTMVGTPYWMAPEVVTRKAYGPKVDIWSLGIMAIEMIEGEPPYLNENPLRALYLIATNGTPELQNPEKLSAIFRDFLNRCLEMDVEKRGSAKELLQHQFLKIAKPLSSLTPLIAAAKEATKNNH
Chain of PAK2 (Q13177 whole entry): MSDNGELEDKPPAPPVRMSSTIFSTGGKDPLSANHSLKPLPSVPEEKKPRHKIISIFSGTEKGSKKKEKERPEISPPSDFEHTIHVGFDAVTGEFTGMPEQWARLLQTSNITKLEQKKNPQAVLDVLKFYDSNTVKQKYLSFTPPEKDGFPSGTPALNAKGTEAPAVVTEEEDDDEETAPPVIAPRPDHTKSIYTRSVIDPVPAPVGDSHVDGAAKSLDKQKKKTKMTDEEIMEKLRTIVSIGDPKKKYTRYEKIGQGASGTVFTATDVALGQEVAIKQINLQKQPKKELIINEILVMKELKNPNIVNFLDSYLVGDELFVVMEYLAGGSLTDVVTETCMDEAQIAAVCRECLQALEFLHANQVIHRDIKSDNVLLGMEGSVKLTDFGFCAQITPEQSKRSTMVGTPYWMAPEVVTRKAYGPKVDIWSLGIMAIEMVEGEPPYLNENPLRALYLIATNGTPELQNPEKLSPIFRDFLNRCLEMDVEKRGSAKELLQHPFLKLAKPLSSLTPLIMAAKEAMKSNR

CN1CCN(c2ccc(Nc3ncc4ccc(=O)n(Cc5c(O)cccc5F)c4n3)cc2)CC1 [compound 105]
< 1000 nM: all assays above

CN1CCN(c2ccc(Nc3ncc4ccc(=O)n(Cc5c(O)cccc5Br)c4n3)cc2)CC1 [compound 123]
< 1000 nM: all assays above
